# Source: patent US10506759B2, “Rice seed treatment agent” (KUMIAI CHEMICAL INDUSTRY CO., LTD., priority 2015, dated 2019)
# Read-outs that look alike come from different tables or passages of the source.
# Columns and labels:
# paddy rice [1] = assay: Test Example 1: germination rate of treated paddy seeds (pot test); type: in vivo
# Description: (§1) Treatment of dried paddy seeds was carried out at a coating ratio of 0.5 (seeds:iron powder=1:0.5). More specifically, paddy seeds, an iron powder, and calcined gypsum were mixed and stirred together while spraying water thereon, using a coating machine according to a conventional method, to coat the seeds with the iron powder and the calcined gypsum. The outer layer of the coated seeds was further similarly coated with finishing calcined gypsum mixed with each of the paddy seed treatment agents containing the herbicidal active components shown in Tables 2 to 6.
# In a 200-cm^2 plastic pot, paddy field soil was placed, and tillage was carried out, followed by sowing seeds of Echinochloa oryzicola and Scirpus juncoides on the soil surface. Then, tubers of Eleocharis kuroguwai in the germination state were buried in such a manner that tips of the sprouts in tubers are exposed to the outside of the soil surface. Four paddy seeds treated with each paddy seed treatment agent obtained in Preparation Example were sown, and water was gently introduced to allow flooding to a depth of 4 cm. On Day 7 after the sowing, the water was removed by suction. When the rice seedlings have grown to the one-leaf stage, flooding was allowed again to a depth of 4 cm. On Day 15 after the sowing, the germination rate of the paddy seeds and the growth-inhibitory effect on the weeds were judged. The germination rate of the paddy seeds is expressed as %, and the growth-inhibitory effect on the weeds is expressed as a value of 0 to 100 representing the degree of inhibition, wherein 0 represents no inhibition, and 100 represents complete death.
# paddy rice [2] = settings: in vivo, 22 days
# Description: as §1
# In a 200-cm^2 plastic pot, paddy field soil was placed, and tillage was carried out, followed by sowing seeds of Scirpus juncoides on the soil surface. Then, the seeds were covered with 0.5-cm thick soil. Subsequently, flooding was allowed to a depth of 4 cm, followed by sowing seeds of Monochoria vaginalis on the soil surface. When the Monochoria vaginalis reached the five-leaf stage, three paddy seeds treated with each paddy seed treatment agent obtained in Preparation Example were sown. […] The germination rate of the paddy seeds is expressed as %, and the growth-inhibitory effect on the weeds is expressed as a value of 0 to 100 representing the degree of inhibition, wherein 0 represents no inhibition, and 100 represents complete death.
# Scirpus juncoides = assay: Test Example 2: growth-inhibitory effect on weeds (pot test); type: in vivo; settings: Table 6; scale 0 to 100 (complete death); Day 22 after sowing of paddy seeds
# Description: as §1
# (§2) In a 200-cm^2 plastic pot, paddy field soil was placed, and tillage was carried out, followed by sowing seeds of Scirpus juncoides on the soil surface. Then, the seeds were covered with 0.5-cm thick soil. Subsequently, flooding was allowed to a depth of 4 cm, followed by sowing seeds of Monochoria vaginalis on the soil surface. When the Monochoria vaginalis reached the five-leaf stage, three paddy seeds treated with each paddy seed treatment agent obtained in Preparation Example were sown. On Day 22 after the sowing of paddy seeds, the germination rate of the paddy seeds and the growth-inhibitory effect on the weeds were judged. Since Lindernia species were spontaneously grown in the test field soil, the growth-inhibitory effect on the Lindernia species were also judged. The germination rate of the paddy seeds is expressed as %, and the growth-inhibitory effect on the weeds is expressed as a value of 0 to 100 representing the degree of inhibition, wherein 0 represents no inhibition, and 100 represents complete death.
# Monochoria vaginalis = assay: as above; type: in vivo; settings: Table 6; paddy seeds sown at five-leaf stage of weed; scale 0 to 100; Day 22 after sowing
# Description: as §1, §2
# Lindernia species = assay: as above; type: in vivo; settings: Table 6; spontaneously grown weeds; scale 0 to 100; Day 22 after sowing
# Description: as §1, §2
Germination rate of paddy rice (%) (paddy rice [1]; in vivo),Germination rate of paddy rice (%) (paddy rice [2]),"Germination rate of paddy rice (%) (paddy rice [1]; Table 2, iron-coated seeds treated with agent (a.i. g per 1 kg seeds as in row), Day 15 after sowing)",Compound,Growth-inhibitory rate Scirpus juncoides (Scirpus juncoides),Growth-inhibitory rate Monochoria vaginalis (Monochoria vaginalis),Growth-inhibitory rate Lindernia species (Lindernia species)
50,,,"CS(=O)(=O)c1ccc(C(=O)C2C(=O)CCCC2=O)c(Cl)c1COCC1CCCO1 (stereo not shown) [compound 1, Tefuryltrione]",,,
,100,100,"COc1ccc(-n2c(=O)c(C(=O)C3C(=O)CCCC3=O)nc3c(Cl)cccc32)cc1 [Example 1, Fenquinotrione]",98,95,95
50,,,"CS(=O)(=O)c1ccc(C(=O)C2=C(Sc3ccccc3)C3CCC(C3)C2=O)c(Cl)c1 (stereo not shown) [compound 2, Benzobicyclon]",,,
